# Measurements: patent US11247965B2 (VenatoRx Pharmaceuticals, Inc., priority 2017, dated 2022)
# Key:
# [1] = In vitro cytotoxicity, MTT cell viability assay in HepG2 cells; assay type: cell-based; settings: human, Cytotoxicity CC50
# Description: To evaluate antiviral selectivity, the cytotoxic activity of each compound was determined using a standard cell viability assay performed on the parental HepG2 cell line. Cell viability was determined by measuring the conversion of 3-(4,5-dimethylthiazol-2-yl)-2,5-diphenyltetrazolium bromide (MTT) to the insoluble formazan salt crystal that occurs in live cells. Briefly, HepG2 cells were seeded in 96-well plates at a density of 20,000 cells per well in EMEM+10% FBS (complete growth medium) and allowed to adhere overnight in a 37° C., 5% CO2 humidified incubator. The next day, test agents were prepared by performing 8 half-log10 serial dilutions in 100% DMSO at 200× the final desired concentration in the assay. Compounds were tested over a range of concentrations from 30 μM to 1.0 nM in the assay. HepG2 cells were incubated in the presence of various concentrations of CAMs for 7 days in a 37° C., 5% CO2 humidified incubator. At the completion of the 7-day incubation period, MTT reagent was added to each well and the mixture was incubated for an additional 3-4 hours. At the completion of the incubation period, all wells were aspirated to remove the culture medium. The formazan crystals were solubilized from the cell monolayers with 100% DMSO. Plates were briefly mixed on an orbital shaker and absorbance was measured at 492 nm using a Perkin-Elmer EnVision multi-label plate reader. All absorbance values were converted to a percentage of the signal obtained from the vehicle treated controls. Absorbance values at 492 nm are directly proportional to the number of viable cells present in the sample. A CC50 value (cytotoxic concentration that results in loss of 50% cell viability) was calculated from the dose-response curve by 4-parameter, non-linear regression analysis using the GraphPad Prism software. The positive control compound, staurosporine, reduced the viability of HepG2 cells in a dose-dependent manner (CC50=100 nM).
# [2] = test system: HBV replication in HepAD38 cells; test: Anti-HBV activity in HepAD38 cells, extracellular HBV DNA by QPCR; assay type: cell-based, HBV (genotype D, serotype ayw); settings: Hepatitis B virus, HePAD38, 168 h, read-out: Anti-HBV EC50, HepAD38 cells, extracellular HBV DNA by QPCR, 7 days of incubation
# Description: The anti-HBV activity of the Capsid Assembly Modulators (CAMs) was evaluated in a cell based assay utilizing the human hepatoma cell line HepAD38 (Ladner, S K., et al., 1998). HepAD38 cells were derived from the parental line, HepG2, that were stably transfected with a construct containing an HBV genome (genotype D, serotype ayw) under the control of a tetracycline repressible CMV promoter. Upon removal of tetracycline, viral pre-genomic RNA (pgRNA) and mRNAs are expressed and infectious viral particles are assembled and secreted into the culture medium providing a reliable, robust system to measure multiple steps of the HBV life cycle. Disruption of capsid formation results in reduced levels of DNA-containing virus particles that are released into the culture supernatant. To quantify the effect of CAMs on HBV replication, we developed a sensitive QPCR-based assay that measures extracellular HBV DNA levels upon treatment of HepAD38 cells with various concentrations of test compounds.
# HepAD38 cells were maintained in DMEM/F12 medium containing 10% FBS, 400 μg/mL G418 and 0.3 μg/mL tetracycline (tet+medium) to maintain repression of HBV replication. To evaluate each compound, HepAD38 cells were seeded into 24-well collagen coated culture plates (Corning BioCoat) at a density of 200,000 cells per well in 1 mL of tet+medium and allowed to adhere overnight at 37° C., 5% CO2 in a humidified incubator. The following day, test articles were subjected to half-logo serial dilutions, ranging from 30 μM to 10 nM, in 100% DMSO at 200× the desired final assay concentration. Tetracycline was removed from the cells by aspirating the tet+medium and washing the cells once with growth medium lacking tetracycline (tet-). Various concentrations of each compound were added to the appropriate wells (1:200 dilution) and the plates were returned to the incubator. Following 7 days of incubation, culture supernatants were harvested and HBV DNA levels were evaluated by QPCR and compared to the vehicle treated control wells (i.e. DMSO alone).
# To quantify HBV DNA levels, cell culture supernatants were diluted 1:10 in sterile, nuclease-free water (Gibco). The diluted supernatants were subsequently added to a PCR master mix containing 1× Roche Light Cycler Master Mix, 0.5 μM forward primer, 0.5 μM reverse primer (Fwd:
# 0.2 μM Roche Universal Probe Library Probe 25. The volume was brought to 20 μL with nuclease-free water and amplification of the HBV target sequence was performed using a Roche LightCycler 480 QPCR instrument. PCR extended out to 45 cycles with each cycle consisting of a denaturation step at 95° C. for 10 sec., followed by an annealing step at 60° C. for 10 sec. and a brief extension step at 72° C. for 1 sec.
# Extracellular HBV DNA levels, expressed in copies/mL, were determined by comparison to a standard curve (10^2-10^9 copies/mL) using the Roche LightCycler analysis software. These values were subsequently converted to percent inhibition of HBV replication by dividing the HBV DNA levels in the experimental samples with those obtained from the vehicle control (˜1-2×10^5 copies/mL). Potency, expressed as an EC50 (the effective concentration required to inhibit […] of HBV replication), was calculated from the dose-response curve using a 4-parameter non-linear regression analysis (GraphPad Prism). The nucleoside analog inhibitor entecavir was used as a positive control to validate each assay run. The EC50 value of entecavir in the HepAD38 assay was 0.5 nM, as previously reported in the literature.
Structure (SMILES),CC50 at 7 days [1] [µM],EC50 [2] [µM]
"Cc1cc(NC(=O)c2c(C)c(C(O)(C(=O)NC(C)(C)C)C(F)(F)F)c(C)n2C)ccc1F (stereo not drawn) [Example 131, 4-(3-(tert-butylamino)-1,1,1-trifluoro-2-hydroxy-3-oxopropan-2-yl)-N-(4-fluoro-3-methylphenyl)-1,3,5-trimethyl-1H-pyrrole-2-carboxamide]",5 to 30,5 to 30
"Nc1nc2c(s1)CN(C(=O)C(F)(F)c1cc(C(=O)Nc3ccc(F)c(Cl)c3)ccc1F)CC2 [Example 279, 3-(2-(2-amino-6,7-dihydrothiazolo[5,4-c]pyridin-5(4H)-yl)-1,1-difluoro-2-oxoethyl)-N-(3-chloro-4-fluorophenyl)-4-fluorobenzamide]",5 to 30,< 5
"Cc1cc(NC(=O)c2ccc(Cl)c(C(F)(F)C(=O)N3CC[C@H](O)[C@H](O)C3)c2)ccc1F [Example 58, 4-chloro-3-(2-((3R,4S)-3,4-dihydroxypiperidin-1-yl)-1,1-difluoro-2-oxoethyl)-N-(4-fluoro-3-methylphenyl)benzamide]",> 30,< 5
"Cc1cc(NC(=O)c2ccc(F)c(C(F)(F)C(=O)N3C4CCCC3c3sc(N)nc3C4)c2)ccc1F (stereo not drawn) [Example 342, 3-(2-(2-amino-4,5,6,7,8,9-hexahydro-5,9-epiminocycloocta[d]thiazol-10-yl)-1,1-difluoro-2-oxoethyl)-4-fluoro-N-(4-fluoro-3-methylphenyl)benzamide]",> 30,< 5
"Cc1cc(NC(=O)c2ccc(F)c(C(F)(F)C(=O)N3C4CC[C@@H]3C[C@@H](C(N)=O)C4)c2)ccc1F [Example 257, (1R,3s,5S)-8-(2,2-difluoro-2-(2-fluoro-5-((4-fluoro-3-methylphenyl)carbamoyl)phenyl)acetyl)-8-azabicyclo[3.2.1]octane-3-carboxamide]",5 to 30,< 5
"Cc1cc(NC(=O)c2ccc(F)c(C(F)(F)C(=O)N3CCC(O)CC3(C)C)c2)ccc1F (stereo not drawn) [Example 71, 3-(1,1-difluoro-2-(4-hydroxy-2,2-dimethylpiperidin-1-yl)-2-oxoethyl)-4-fluoro-N-(4-fluoro-3-methylphenyl)benzamide]",> 30,5 to 30
"Cc1cc(NC(=O)c2ccc(F)c(C(F)(F)C(=O)N3C4CC[C@@H]3C[C@@H](C(=O)N3CCOCC3)C4)c2)ccc1F [Example 260, 3-(1,1-difluoro-2-((1R,3s,5S)-3-(morpholine-4-carbonyl)-8-azabicyclo[3.2.1]octan-8-yl)-2-oxoethyl)-4-fluoro-N-(4-fluoro-3-methylphenyl)benzamide]",> 30,< 5
"CC(=O)Nc1nc2c(s1)CN(C(=O)C(F)(F)c1cc(C(=O)Nc3ccc(F)c(C)c3)ccc1F)CC2 [Example 288, 3-(2-(2-acetamido-6,7-dihydrothiazolo[5,4-c]pyridin-5(4H)-yl)-1,1-difluoro-2-oxoethyl)-4-fluoro-N-(4-fluoro-3-methylphenyl)benzamide]",5 to 30,< 5
Cc1cc(NC(=O)c2ccc(F)c(C(F)(F)C(=O)N3CC[C@H](O)C[C@H]3C)c2)ccc1F [Example 255],5 to 30,< 5
"Cc1cc(NC(=O)c2ccc(F)c(C(F)(F)C(=O)N3[C@@H]4CNC[C@H]3COC4)c2)ccc1F [Example 208, 3-(2-((1R,5S)-3-oxa-7,9-diazabicyclo[3.3.1]nonan-9-yl)-1,1-difluoro-2-oxoethyl)-4-fluoro-N-(4-fluoro-3-methylphenyl)benzamide]",5 to 30,< 5
"Cc1cc(NC(=O)c2ccc(F)c(C(F)(F)C(=O)N3CCC(NC(=O)OC(C)(C)C)CC3)c2)ccc1F [Example 229, tert-butyl (1-(2,2-difluoro-2-(2-fluoro-5-((4-fluoro-3-methylphenyl)carbamoyl)phenyl)acetyl)piperidin-4-yl)carbamate]",5 to 30,< 5
"COc1cc(NC(=O)c2ccc(Cl)c(C(F)(F)C(=O)N3CCC(O)CC3)c2)cc(F)c1F [Example 61, 4-chloro-3-(1,1-difluoro-2-(4-hydroxypiperidin-1-yl)-2-oxoethyl)-N-(3,4-difluoro-5-methoxyphenyl)benzamide]",> 30,5 to 30
"Cc1cc(NC(=O)c2ccc(Cl)c(C(F)(F)C(=O)N3CCC(B(O)O)CC3)c2)ccc1F [Example 148, (1-(2-(2-chloro-5-((4-fluoro-3-methylphenyl)carbamoyl)phenyl)-2,2-difluoroacetyl)piperidin-4-yl)boronic acid]",> 30,< 5
"Cc1ccc(C(=O)Nc2ccc(F)c(Cl)c2)cc1C(F)(F)C(=O)N1[C@@H]2CC[C@H]1C[C@H](O)C2 [Example 206, N-(3-chloro-4-fluorophenyl)-3-(1,1-difluoro-2-((1R,3s,5S)-3-hydroxy-8-azabicyclo[3.2.1]octan-8-yl)-2-oxoethyl)-4-methylbenzamide]",5 to 30,< 5
"Cc1cc(NC(=O)c2ccc(F)c(C(F)(F)C(=O)N3CCC(O)CC3)c2)ccc1F [Example 29, 3-(1,1-difluoro-2-(4-hydroxypiperidin-1-yl)-2-oxoethyl)-4-fluoro-N-(4-fluoro-3-methylphenyl)benzamide]",> 30,< 5
"Cc1cc(NC(=O)c2ccc(F)c(C(F)(F)C(=O)N3CCC(N)C(F)(F)C3)c2)ccc1F (stereo not drawn) [Example 334, 3-(2-(4-amino-3,3-difluoropiperidin-1-yl)-1,1-difluoro-2-oxoethyl)-4-fluoro-N-(4-fluoro-3-methylphenyl)benzamide]",5 to 30,< 5
"Cc1cc(NC(=O)c2ccc(F)c(C(F)(F)C(=O)N3[C@@H]4COC[C@H]3CN(C(=O)OC(C)(C)C)C4)c2)ccc1F [Example 209, tert-butyl (1R,5S)-9-(2,2-difluoro-2-(2-fluoro-5-((4-fluoro-3-methylphenyl)carbamoyl)phenyl)acetyl)-3-oxa-7,9-diazabicyclo[3.3.1]nonane-7-carboxylate]",5 to 30,< 5
"Cc1cc(NC(=O)c2cc(C(F)(F)C(=O)N3[C@@H]4CC[C@H]3C[C@H](O)C4)c(F)cc2F)ccc1F [Example 218, 5-(1,1-difluoro-2-((1R,3s,5S)-3-hydroxy-8-azabicyclo[3.2.1]octan-8-yl)-2-oxoethyl)-2,4-difluoro-N-(4-fluoro-3-methylphenyl)benzamide]",> 30,< 5
